Data taken from patent US6906097B2, “8-azaprostaglandin analogs as agents for lowering intraocular pressure” (Allergan, Inc., priority 2002, dated 2005).

Experiments:
hEP4 [1] = biological target: T1, hEP4 (Homo sapiens, UniProt P35408); experiment: Radioligand binding, hEP4; settings: [3H]PGE2 competition
T1 construct: expressed in transfected cells
Description: (§1) Human Recombinant EP1, EP2, EP3, EP4, FP, TP, IP and DP Receptors: Stable Transfectants
(§2) Plasmids encoding the human EP1, EP2, EP3, EP4, FP, TP, IP and DP receptors were prepared by cloning the respective coding sequences into the eukaryotic expression vector pCEP4 (Invitrogen). The pCEP4 vector contains an Epstein Barr virus (EBV) origin of replication, which permits episomal replication in primate cell lines expressing EBV nuclear antigen (EBNA-1). It also contains a hygromycin resistance gene that is used for eukaryotic selection. […] HEK-293 cells were grown in DMEM with 10% fetal bovine serum (FBS), 250 μg ml^−1 G418 (Life Technologies) and 200 μg ml^−1 gentamicin or penicillin/streptomycin.
(§3) For transfection, the cells were grown to 50-60% confluency on 10 cm plates. The plasmid pCEP4 incorporating cDNA inserts for the respective human prostanoid receptor (20 μg) was added to 500 μl of 250 mM CaCl2. […] After 30 min, 9 ml DMEM were added to the mixture. The DNA/DMEM/calcium phosphate mixture was then added to the cells, which had been previously rinsed with 10 ml PBS. The cells were then incubated for 5 hr at 37° C. in humidified 95% air/5% CO2. The calcium phosphate solution was then removed and the cells were treated with 10% glycerol in DMEM for 2 min. The glycerol solution was then replaced by DMEM with 10% FBS. The cells were incubated overnight and the medium was replaced by DMEM/10% FBS containing 250 μg ml^−1 G418 and penicillin/streptomycin. The following day hygromycin B was added to a final concentration of 200 μg ml^−1.
(§4) Ten days after transfection, hygromycin B resistant clones were individually selected and transferred to a separate well on a 24 well plate. At confluence each clone was transferred to one well of a 6 well plate, and then expanded in a 10 cm dish. Cells were maintained under continuous hygromycin selection until use.
Radioligand binding studies on plasma membrane fractions prepared for cells stably transfected with the cat or human receptor were performed as follows. Cells washed with TME buffer were scraped from the bottom of the flasks and homogenized for 30 sec using a Brinkman PT 10/35 polytron. TME buffer was added as necessary to achieve a 40 ml volume in the centrifuge tubes. TME is comprised of 50 mM TRIS base, 10 mM MgCl2, 1 mM EDTA; pH 7.4 is achieved by adding 1 N HCl. The cell homogenate was centrifuged at 19,000 rpm for 20-25 min at 4° C. using a Beckman Ti-60 or Ti-70 rotor. The pellet was then resuspended in TME buffer to provide a final protein concentration of 1 mg/ml, as determined by Bio-Rad assay. Radioligand binding assays were performed in a 100 μl or 200 μl volume.
The binding of [^3H](N) PGE2 (specific activity 165 Ci/mmol) was determined in duplicate and in at least 3 separate experiments. Incubations were for 60 min at 25° C. and were terminated by the addition of 4 ml of ice-cold 50 mM TRIS-HCl followed by rapid filtration through Whatman GF/B filters and three additional 4 ml washes in a cell harvester (Brandel). Competition studies were performed using a final concentration of 2.5 or 5 nM [^3H](N) PGE2 and non-specific binding was determined with 10^−5 M unlabelled PGE2.

hEP4 [2] = biological target: T1, hEP4; experiment: Functional data, human recombinant EP4 receptor stable transfectants; assay type: cell-based
Description: as §1, §2, §3, §4

hTP = biological target: T2, hTP (Homo sapiens, UniProt P21731); experiment: Functional data, human recombinant TP receptor stable transfectants; assay type: cell-based
T2 construct: expressed in transfected cells
T2 sequence (P21731 1-343): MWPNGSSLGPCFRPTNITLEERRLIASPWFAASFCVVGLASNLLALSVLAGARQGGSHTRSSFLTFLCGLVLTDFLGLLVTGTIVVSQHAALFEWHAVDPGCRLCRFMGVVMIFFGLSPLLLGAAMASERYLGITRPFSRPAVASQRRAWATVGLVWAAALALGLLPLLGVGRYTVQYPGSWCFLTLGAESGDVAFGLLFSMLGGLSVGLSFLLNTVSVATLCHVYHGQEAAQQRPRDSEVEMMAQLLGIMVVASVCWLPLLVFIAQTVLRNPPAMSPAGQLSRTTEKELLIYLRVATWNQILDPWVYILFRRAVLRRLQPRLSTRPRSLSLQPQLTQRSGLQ
Description: as §1
(§5) Plasmids encoding the human EP1, EP2, EP3, EP4, FP, TP, IP and DP receptors were prepared by cloning the respective coding sequences into the eukaryotic expression vector pCEP4 (Invitrogen). The pCEP4 vector contains an Epstein Barr virus (EBV) origin of replication, which permits episomal replication in primate cell lines expressing EBV nuclear antigen (EBNA-1). It also contains a hygromycin resistance gene that is used for eukaryotic selection. The cells employed for stable transfection were human embryonic kidney cells (HEK-293) that were transfected with and express the EBNA-1 protein. These HEK-293-EBNA cells (Invitrogen) were grown in medium containing Geneticin (G418) to maintain expression of the EBNA-1 protein. HEK-293 cells were grown in DMEM with 10% fetal bovine serum (FBS), 250 μg ml^−1 G418 (Life Technologies) and 200 μg ml^−1 gentamicin or penicillin/streptomycin.
(§6) For transfection, the cells were grown to 50-60% confluency on 10 cm plates. The plasmid pCEP4 incorporating cDNA inserts for the respective human prostanoid receptor (20 μg) was added to 500 μl of 250 mM CaCl2. HEPES buffered saline×2 (2×HBS, 280 mM NaCl, 20 mM HEPES acid, 1.5 mM Na2 HPO4, pH 7.05-7.12) was then added dropwise to a total of 500 μl, with continuous vortexing at room temperature. After 30 min, 9 ml DMEM were added to the mixture. The DNA/DMEM/calcium phosphate mixture was then added to the cells, which had been previously rinsed with 10 ml PBS. The cells were then incubated for 5 hr at 37° C. in humidified 95% air/5% CO2. The calcium phosphate solution was then removed and the cells were treated with 10% glycerol in DMEM for 2 min. The glycerol solution was then replaced by DMEM with 10% FBS. The cells were incubated overnight and the medium was replaced by DMEM/10% FBS containing 250 μg ml^−1 G418 and penicillin/streptomycin. The following day hygromycin B was added to a final concentration of 200 μg ml^−1.
as §4

hEP3A = biological target: T3, hEP3A (Homo sapiens, UniProt P43115); experiment: Functional data, human recombinant EP3A receptor stable transfectants; assay type: cell-based
T3 construct: expressed in transfected cells
T3 sequence (P43115 1-390): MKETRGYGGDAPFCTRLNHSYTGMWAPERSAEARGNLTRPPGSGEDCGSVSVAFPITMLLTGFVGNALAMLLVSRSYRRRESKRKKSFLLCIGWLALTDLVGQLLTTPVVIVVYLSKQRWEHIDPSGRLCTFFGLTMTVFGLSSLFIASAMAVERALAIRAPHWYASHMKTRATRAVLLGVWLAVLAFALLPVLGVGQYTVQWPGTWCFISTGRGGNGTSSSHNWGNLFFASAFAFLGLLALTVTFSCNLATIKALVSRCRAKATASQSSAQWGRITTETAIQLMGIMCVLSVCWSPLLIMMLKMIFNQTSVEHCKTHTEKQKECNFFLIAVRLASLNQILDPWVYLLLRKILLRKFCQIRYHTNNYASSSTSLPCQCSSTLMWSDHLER
Description: as §1, §2, §3, §4

hEP1 = biological target: T4, hEP1 (Homo sapiens, UniProt P34995); experiment: Functional data, human recombinant EP1 receptor stable transfectants; assay type: cell-based
T4 construct: expressed in transfected cells
T4 sequence (P34995 1-402): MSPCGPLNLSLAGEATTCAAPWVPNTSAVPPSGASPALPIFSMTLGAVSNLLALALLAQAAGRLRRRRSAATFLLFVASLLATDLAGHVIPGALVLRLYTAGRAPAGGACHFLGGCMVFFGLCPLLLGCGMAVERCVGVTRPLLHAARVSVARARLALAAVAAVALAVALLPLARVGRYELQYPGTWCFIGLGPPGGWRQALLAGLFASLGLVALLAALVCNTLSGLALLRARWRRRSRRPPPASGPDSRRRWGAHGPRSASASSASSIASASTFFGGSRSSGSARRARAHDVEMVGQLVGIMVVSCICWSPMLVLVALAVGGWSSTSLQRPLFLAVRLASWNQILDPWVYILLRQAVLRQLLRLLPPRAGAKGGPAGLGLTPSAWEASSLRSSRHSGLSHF
Description: as §1, §5, §6, §4

T1 sequence (P35408 whole entry): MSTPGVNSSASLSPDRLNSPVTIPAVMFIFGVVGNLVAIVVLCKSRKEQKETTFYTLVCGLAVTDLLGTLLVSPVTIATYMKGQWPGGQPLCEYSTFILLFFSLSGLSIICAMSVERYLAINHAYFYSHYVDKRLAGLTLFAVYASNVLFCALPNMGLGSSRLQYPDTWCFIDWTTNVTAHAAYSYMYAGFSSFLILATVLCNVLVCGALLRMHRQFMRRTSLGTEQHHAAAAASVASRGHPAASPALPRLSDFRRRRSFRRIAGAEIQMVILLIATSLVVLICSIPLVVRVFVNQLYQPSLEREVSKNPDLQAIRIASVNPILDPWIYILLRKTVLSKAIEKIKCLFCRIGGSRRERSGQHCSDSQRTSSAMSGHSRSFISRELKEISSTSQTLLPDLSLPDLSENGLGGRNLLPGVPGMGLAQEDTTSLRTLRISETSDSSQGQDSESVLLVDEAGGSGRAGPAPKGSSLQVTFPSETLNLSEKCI

SMILES | IC50 (hEP4 [1]) [µM] | EC50 (hEP4 [2]) [µM] | EC50 (hTP) [µM] | EC50 (hEP3A) [µM] | hEP1 functional EC50 (hEP1) | hEP3A functional EC50 (hEP3A) | EC50 (hEP1) [µM]
CCOC(=O)CCCCCCN1C(=O)CC[C@@H]1/C=C/C(O)Cc1cccc(Cl)c1 (stereo partly drawn) [Example 2a, 7-[2S-[3R-Hydroxy-4-(chlorophenyl)-but-1-enyl]-5-oxo-pyrrolidin-1-yl]-heptanoic acid, ethyl ester] | 0.3 | 0.021 | – | – | – | – | –
CCOC(=O)CCCCCCN1C(=O)CC[C@@H]1/C=C/C(=O)Cc1cccc(Cl)c1 [Example 4a, 7-[2S-[4-(3-Chloro-phenyl)-3-oxo-but-1-enyl]-5-oxo-pyrrolidin-1-yl]-heptanoic acid, ethyl ester] | > 10 | > 10 | – | – | – | – | –
O=C(O)CCCCCCN1C(=O)CC[C@@H]1/C=C/C(=O)Cc1cccc(Cl)c1 [Example 3a, 7-[2S-[4-(3-Chloro-phenyl)-3-oxo-but-1-enyl]-5-oxo-pyrrolidin-1-yl]-heptanoic acid] | 0.3 | 0.054 | > 10 | 0.324 | hit | – | –
CCOC(=O)CCCCCCN1C(=O)CC[C@@H]1/C=C/C(=O)Cc1ccccc1 [Example 12a, 7-[2S-[3-Oxo-4-(phenyl)-but-1-enyl]-5-oxo-pyrrolidin-1-yl]-heptanoic acid, ethyl ester] | > 10 | > 10 | – | – | – | – | –
CCOC(=O)CCCCCCN1C(=O)CC[C@@H]1CCC(=O)Cc1cccc(C(F)(F)F)c1 [Example 8, 7-[2S-[3-Oxo-4-(trifluoromethylphenyl)-butyl]-5-oxo-pyrrolidin-1-yl]-heptanoic acid, ethyl ester] | > 10 | 7.16 | – | – | – | – | –
CCOC(=O)CCCCCCN1C(=O)CC[C@@H]1CCC(O)Cc1cccc(C(F)(F)F)c1 (stereo partly drawn) [Example 6, 7-[2S-[3R-Hydroxy-4-(3-trifluoromethyl-phenyl)-butyl]-5-oxo-pyrrolidin-1-yl]-heptanoic acid, ethyl ester] | 1.2 | 0.111 | – | – | – | – | –
O=C(O)CCCCCCN1C(=O)CC[C@@H]1/C=C/C(O)Cc1cccc(C(F)(F)F)c1 (stereo partly drawn) [Example 5a, 7-[2S-[3R-Hydroxy-4-(3-trifluoromethyl-phenyl)-but-1-enyl]-5-oxo-pyrrolidin-1-yl]-heptanoic acid] | 0.005 | 0.0004 | – | – | – | hit | –
O=C(O)CCCCCCN1C(=O)CC[C@@H]1CCC(=O)Cc1cccc(C(F)(F)F)c1 [Example 7, 7-[2S-[3-Oxo-4-(trifluormethylphenyl)-butyl]-5-oxo-pyrrolidin-1-yl]-heptanoic acid] | 2.2 | 0.551 | > 10 | – | – | hit | > 10
CCOC(=O)CCCCCCN1C(=O)CC[C@@H]1CCC(=O)Cc1ccccc1 [Example 12, 7-[2S-[3-Oxo-4-(phenyl)-butyl]-5-oxo-pyrrolidin-1-yl]-heptanoic acid, ethyl ester] | 8.9 | > 10 | – | – | – | – | –
CCOC(=O)CCCCCCN1C(=O)CC[C@@H]1/C=C/C(=O)Cc1cccc(C(F)(F)F)c1 [Example 8a, 7-[2S-[3-Oxo-4-(trifluoromethylphenyl)-but-1-enyl]-5-oxo-pyrrolidin-1-yl]-heptanoic acid, ethyl ester] | > 10 | > 10 | – | > 10 | – | – | –
CCOC(=O)CCCCCCN1C(=O)CC[C@@H]1CCC(O)Cc1ccccc1 (stereo partly drawn) [Example 10, 7-[2S-[3R-Hydroxy-(4-phenyl)-butyl]-5-oxo-pyrrolidin-1-yl]-heptanoic acid, ethyl ester] | – | 1.02 | – | – | – | – | –
CCOC(=O)CCCCCCN1C(=O)CC[C@@H]1CCC(O)Cc1cccc(Cl)c1 (stereo partly drawn) [Example 2, 7-[2S-[3R-Hydroxy-4-(chlorophenyl)-butyl]-5-oxo-pyrrolidin-1-yl]-heptanoic acid, ethyl ester] | 1 | 0.065 | – | – | – | – | –
O=C(O)CCCCCCN1C(=O)CC[C@@H]1CCC(O)Cc1cccc(C(F)(F)F)c1 (stereo partly drawn) [Example 5, 7-[2S-[3R-Hydroxy-4-(3-trifluoromethyl-phenyl)-butyl]-5-oxo-pyrrolidin-1-yl]-heptanoic acid] | 0.017 | 0.0004 | – | – | – | hit | –
O=C(O)CCCCCCN1C(=O)CC[C@@H]1CCC(O)Cc1ccccc1 (stereo partly drawn) [Example 9, 7-[2S-[3R-Hydroxy-(4-phenyl)-butyl]-5-oxo-pyrrolidin-1-yl]-heptanoic acid] | 0.018 | 0.0024 | – | > 10 | – | – | –
CCOC(=O)CCCCCCN1C(=O)CC[C@@H]1/C=C/C(O)Cc1ccccc1 (stereo partly drawn) [Example 10a, 7-[2S-[3R-Hydroxy-(4-phenyl)-but-1-enyl]-5-oxo-pyrrolidin-1-yl]-heptanoic acid, ethyl ester] | 0.6 | 0.368 | – | – | – | – | –
